# Like-named read-outs stand apart in the source and are kept apart here.
# Columns and labels:
# Format in all cases: cell-based, S. cerevisiae
# [1] = test system: YPH499 (transformed by YEp352); test: Sensitivity to antifungal compounds (MIC), wild-type YPH499 (YEp352); conditions: for MIC: Saccharomyces cerevisiae, read-out: Minimum Inhibitory Concentration
# Method: (§1) Strains A and B, and wild-type strain YPH499 (transformed with YEp352) were tested for sensitivity to a variety of known antifungal compounds. Cells were grown in YEPD or SC-URA (2% glucose) liquid culture and dispensed into the wells of a 96-well microtiter dish containing decreasing amounts of antifungal compounds, as in Example 2.
# (§2) ^a Cells were grown in SCURA (2% glucose)
# ^b YPH499 is transformed by YEp352.
# [2] = test system: Strain A; test: Sensitivity to antifungal compounds (MIC), Strain A; conditions: for MIC: Saccharomyces cerevisiae, read-out: Minimum Inhibitory Concentration
# Method: as §1, §2
# [3] = test system: Strain B; test: Sensitivity to antifungal compounds (MIC), Strain B; conditions: for MIC: Saccharomyces cerevisiae, read-out: Minimum Inhibitory Concentration
# Method: as §1, §2
# [4] = test system: strains A and B; test: Whole-cell comparison of strains A and B (and wild type) with antifungal compounds that do not target IPC synthase; conditions: strains A and B compared
# Method: as §1
Compound,MIC ([1]; SC-URA (2% glucose)),MIC ([2]; SC-URA (2% glucose)),MIC ([3]; SC-URA (2% glucose)),effect on strains A and B (in words) [4],also measured
C[C@@H]1[C@H](O)[C@@H](C)/C=C/C=C/C=C/C=C/C=C/C=C/C=C/[C@H](O[C@@H]2O[C@H](C)[C@@H](O)[C@H](N)[C@@H]2O)C[C@@H]2O[C@](O)(C[C@@H](O)C[C@@H](O)[C@H](O)CC[C@@H](O)C[C@@H](O)CC(=O)O[C@H]1C)C[C@H](O)[C@H]2C(=O)O [Amphotericin B],2500 µg/mL,2500 µg/mL,2500 µg/mL,equally affected,
C[C@@H]1[C@H](O)[C@@H](C)/C=C/C=C/CC/C=C/C=C/C=C/C=C/C(O[C@H]2O[C@H](C)[C@@H](O)[C@H](N)[C@@H]2O)CC2O[C@](O)(CC(O)C(O)CCC(O)CC(O)CC(O)CC(=O)O[C@H]1C)CC(O)C2C(=O)O (some centres unmarked) [Nystatin],,,,equally affected,Minimum Inhibitory Concentration ([1]; SC-URA (2% glucose)): 20 mg/mL; Minimum Inhibitory Concentration ([2]; SC-URA (2% glucose)): 20 mg/mL; Minimum Inhibitory Concentration ([3]; SC-URA (2% glucose)): 20 mg/mL
CCC(C)n1ncn(-c2ccc(N3CCN(c4ccc(OCC5COC(Cn6cncn6)(c6ccc(Cl)cc6Cl)O5)cc4)CC3)cc2)c1=O (centres unmarked) [Itraconazole],1200 µg/mL,1200 µg/mL,1200 µg/mL,,
CC(=O)N1CCN(c2ccc(OCC3COC(Cn4ccnc4)(c4ccc(Cl)cc4Cl)O3)cc2)CC1 (centres unmarked) [ketoconazole],,,,equally affected,
C[C@@H]1C[C@@H]([C@H](O)CC2CC(=O)NC(=O)C2)C(=O)[C@@H](C)C1 [Cycloheximide],,,,equally affected,MIC [1]: 300 µg/mL; MIC [2]: 300 µg/mL; MIC [3]: 600 µg/mL
OC(Cn1cncn1)(Cn1cncn1)c1ccc(F)cc1F [Fluconazole],> 80000 µg/mL,> 80000 µg/mL,> 80000 µg/mL,equally affected,

# Reference: US5976866A, “Screen for inhibitors of fungal IPC synthase” (Eli Lilly and Company, priority 1997, dated 1999)
